Where “and” joins values, the source holds several entries; their conditions need not be identical. Identical values can stand only once. Like-named read-outs stand apart in the source and are kept apart here.
Tests used:
Assay in all cases: Inside-out patch-clamp inhibition of CFTR current by Inh-172
Format in all cases: cell-based
T1142A-CFTR = target: T1, T1142A-CFTR (Homo sapiens, UniProt P13569, T1142A)
T1 construct: expressed in transfected cells; host or cells: CHO cells, pcDNA plasmid

T1142I-CFTR = target: T2, T1142I-CFTR (Homo sapiens, UniProt P13569, T1142I); conditions: for inhibition at 0.1 µM: 100 nM Inh-172; for inhibition at 0.5 µM: 500 nM Inh-172; for inhibition at 1 µM: 1000 nM Inh-172; for inhibition at 5 µM: 5000 nM Inh-172; for inhibition at 10 µM: 10000 nM Inh-172
T2 construct: expressed in transfected cells; host or cells: CHO cells, pcDNA plasmid
T2 sequence (P13569 whole entry T1142I): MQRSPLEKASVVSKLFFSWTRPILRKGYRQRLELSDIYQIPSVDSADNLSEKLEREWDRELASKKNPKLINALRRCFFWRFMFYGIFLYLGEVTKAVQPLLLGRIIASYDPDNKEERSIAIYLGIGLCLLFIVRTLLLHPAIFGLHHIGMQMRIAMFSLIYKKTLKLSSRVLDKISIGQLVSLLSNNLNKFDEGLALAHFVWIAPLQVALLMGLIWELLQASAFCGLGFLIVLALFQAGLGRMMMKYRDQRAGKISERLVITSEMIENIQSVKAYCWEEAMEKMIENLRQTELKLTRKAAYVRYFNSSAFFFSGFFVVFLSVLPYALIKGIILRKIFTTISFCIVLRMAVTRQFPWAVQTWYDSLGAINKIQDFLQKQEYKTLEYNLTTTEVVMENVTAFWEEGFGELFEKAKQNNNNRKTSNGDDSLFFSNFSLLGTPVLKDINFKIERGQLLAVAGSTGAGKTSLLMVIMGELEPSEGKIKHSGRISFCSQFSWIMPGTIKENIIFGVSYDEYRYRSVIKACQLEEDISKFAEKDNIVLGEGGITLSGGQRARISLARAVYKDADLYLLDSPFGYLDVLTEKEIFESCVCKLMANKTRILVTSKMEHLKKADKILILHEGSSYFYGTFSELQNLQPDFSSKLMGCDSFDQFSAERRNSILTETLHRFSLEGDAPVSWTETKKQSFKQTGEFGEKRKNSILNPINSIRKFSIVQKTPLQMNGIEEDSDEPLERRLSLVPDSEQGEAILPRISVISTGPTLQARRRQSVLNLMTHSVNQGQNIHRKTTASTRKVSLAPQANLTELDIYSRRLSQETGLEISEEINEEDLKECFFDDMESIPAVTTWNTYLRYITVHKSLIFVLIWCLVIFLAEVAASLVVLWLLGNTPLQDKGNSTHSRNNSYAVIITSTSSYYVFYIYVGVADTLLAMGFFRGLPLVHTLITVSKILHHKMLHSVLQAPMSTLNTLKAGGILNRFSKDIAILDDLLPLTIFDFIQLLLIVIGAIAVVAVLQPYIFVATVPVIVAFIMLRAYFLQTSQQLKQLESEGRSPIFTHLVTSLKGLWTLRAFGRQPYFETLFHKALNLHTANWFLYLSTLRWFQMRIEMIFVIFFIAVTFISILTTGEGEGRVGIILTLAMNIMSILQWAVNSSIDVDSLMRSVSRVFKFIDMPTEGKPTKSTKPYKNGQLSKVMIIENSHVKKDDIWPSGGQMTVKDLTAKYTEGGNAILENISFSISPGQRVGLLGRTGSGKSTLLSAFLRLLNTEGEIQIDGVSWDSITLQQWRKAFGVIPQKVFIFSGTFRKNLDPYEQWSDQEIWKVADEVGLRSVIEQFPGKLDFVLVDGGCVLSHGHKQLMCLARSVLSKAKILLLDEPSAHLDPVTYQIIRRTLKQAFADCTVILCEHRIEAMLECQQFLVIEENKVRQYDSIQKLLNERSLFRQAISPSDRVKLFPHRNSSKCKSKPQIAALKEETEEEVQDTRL

W1145A-CFTR = target: T3, W1145A-CFTR (Homo sapiens, UniProt P13569, W1145A)
T3 construct: expressed in transfected cells; host or cells: CHO cells, pcDNA plasmid
T3 sequence (P13569 whole entry W1145A): as the sequence (P13569 whole entry T1142I) above, with I1142T, W1145A counted along it

[1] = target: T4, h-pTM8-h-CFTR (human CFTR, three TM8 amino acids replaced with pig's) (Homo sapiens, UniProt P13569, F931L/M929L/T925G); conditions: for inhibition at 1 µM: 1000 nM Inh-172; for inhibition at 5 µM: 5000 nM Inh-172; for inhibition at 10 µM: 10000 nM Inh-172
T4 construct: expressed in transfected cells; host or cells: CHO cells, pcDNA plasmid
T4 sequence (P13569 whole entry T925G/M929L/F931L): as the sequence (P13569 whole entry T1142I) above, with T925G, M929L, F931L, I1142T counted along it

[2] = target: T5, p-hTM8-p-CFTR (pig CFTR, three TM8 amino acids replaced with human's) (Sus scrofa, UniProt Q6PQZ2, G926T/L930M/L932F)
T5 construct: expressed in transfected cells; host or cells: CHO cells, pcDNA plasmid
T5 sequence (Q6PQZ2 whole entry G926T/L930M/L932F): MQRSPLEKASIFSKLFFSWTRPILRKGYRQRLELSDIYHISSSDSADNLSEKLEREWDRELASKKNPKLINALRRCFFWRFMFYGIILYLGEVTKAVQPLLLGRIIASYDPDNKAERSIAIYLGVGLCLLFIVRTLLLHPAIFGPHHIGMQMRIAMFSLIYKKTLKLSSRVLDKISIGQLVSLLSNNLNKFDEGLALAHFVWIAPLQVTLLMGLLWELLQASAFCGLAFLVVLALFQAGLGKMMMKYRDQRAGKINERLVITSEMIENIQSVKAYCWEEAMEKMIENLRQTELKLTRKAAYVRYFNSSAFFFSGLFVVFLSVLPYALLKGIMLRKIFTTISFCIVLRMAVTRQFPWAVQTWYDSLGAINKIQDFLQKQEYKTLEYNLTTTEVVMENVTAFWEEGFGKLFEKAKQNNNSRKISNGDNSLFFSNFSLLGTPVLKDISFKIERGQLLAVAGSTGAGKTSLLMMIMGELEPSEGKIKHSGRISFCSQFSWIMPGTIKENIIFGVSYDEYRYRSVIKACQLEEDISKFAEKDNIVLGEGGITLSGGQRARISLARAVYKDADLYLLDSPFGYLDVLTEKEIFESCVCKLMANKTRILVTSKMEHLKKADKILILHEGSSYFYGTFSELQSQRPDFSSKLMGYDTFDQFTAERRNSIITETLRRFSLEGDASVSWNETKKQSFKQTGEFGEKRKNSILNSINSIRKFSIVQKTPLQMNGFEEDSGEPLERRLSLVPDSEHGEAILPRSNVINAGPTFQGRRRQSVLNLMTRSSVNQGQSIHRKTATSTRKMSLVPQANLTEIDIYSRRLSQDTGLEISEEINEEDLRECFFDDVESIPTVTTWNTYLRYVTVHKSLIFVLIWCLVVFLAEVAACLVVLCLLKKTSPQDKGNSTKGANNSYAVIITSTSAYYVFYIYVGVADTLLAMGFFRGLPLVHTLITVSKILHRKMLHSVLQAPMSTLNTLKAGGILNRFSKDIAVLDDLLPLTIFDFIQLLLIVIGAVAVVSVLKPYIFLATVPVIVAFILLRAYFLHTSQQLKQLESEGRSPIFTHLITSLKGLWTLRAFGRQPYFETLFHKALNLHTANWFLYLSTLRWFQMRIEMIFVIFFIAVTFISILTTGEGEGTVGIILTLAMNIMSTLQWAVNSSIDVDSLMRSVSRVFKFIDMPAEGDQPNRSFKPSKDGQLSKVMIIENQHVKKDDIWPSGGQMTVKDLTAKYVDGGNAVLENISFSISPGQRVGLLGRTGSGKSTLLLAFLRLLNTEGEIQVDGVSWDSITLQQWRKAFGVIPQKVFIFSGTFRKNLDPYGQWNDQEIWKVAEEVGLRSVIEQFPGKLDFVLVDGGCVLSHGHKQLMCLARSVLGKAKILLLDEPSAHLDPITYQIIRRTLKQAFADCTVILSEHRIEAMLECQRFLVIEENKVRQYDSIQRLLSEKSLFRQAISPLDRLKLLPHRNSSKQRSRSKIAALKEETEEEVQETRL

[3] = 100 nM Inh-172, read-out: percent inhibition of current, Mean
[4] = 500 nM Inh-172, read-out: percent inhibition of current, Mean
[5] = 1000 nM Inh-172, read-out: percent inhibition of current, Mean
[6] = 5000 nM Inh-172, read-out: percent inhibition of current, Mean
[7] = 5000 nM Inh-172, read-out: percent inhibition of current, individual cell
[8] = 10000 nM Inh-172, read-out: percent inhibition of current, Mean
[9] = 10000 nM Inh-172, read-out: percent inhibition of current, individual cell
[10] = read-out: percent inhibition of current, Mean
[11] = read-out: percent inhibition of current, individual cell

T1 sequence (P13569 whole entry T1142A): as the sequence (P13569 whole entry T1142I) above, with I1142A counted along it

O=C(O)c1ccc(/C=C2\SC(=S)N(c3cccc(C(F)(F)F)c3)C2=O)cc1 [Inh-172, CFTRinh-172]
percent inhibition of current, individual cell (T1142A-CFTR; 100 nM Inh-172): 28.0 and 24.0 and 52.0 and 14.0 and 42.0 | inhibition at 0.1 µM (T1142A-CFTR; [3]): 31.3% | percent inhibition of current, individual cell (T1142A-CFTR; 500 nM Inh-172): 61.0 and 67.0 and 78.0 and 44.0 and 66.0 | inhibition at 0.5 µM (T1142A-CFTR; [4]): 63.2% | percent inhibition of current, individual cell (T1142A-CFTR; 1000 nM Inh-172): 74.0 and 70.0 and 87.0 and 60.0 and 78.0 | inhibition at 1 µM (T1142A-CFTR; [5]): 73.8% | percent inhibition of current, individual cell (T1142A-CFTR; 5000 nM Inh-172): 93.0 and 96.0 and 84.0 | inhibition at 5 µM (T1142A-CFTR; [6]): 91.2% | inhibition at 5 µM (T1142A-CFTR; [7]): 90% | percent inhibition of current, individual cell (T1142A-CFTR; 10000 nM Inh-172): 98.0 and 92.0 | inhibition at 10 µM (T1142A-CFTR; [8]): 96.2% | inhibition at 10 µM (T1142A-CFTR; [9]): 97% | Hill Coefficient (T1142A-CFTR; T1142A): 0.81 ± 0.02 | IC50 (T1142A-CFTR; T1142A): 270 ± 10 nM | inhibition at 0.1 µM (T1142I-CFTR; [10]): 7.2% | inhibition at 0.1 µM (T1142I-CFTR; [11]): 5% | inhibition at 0.5 µM (T1142I-CFTR; [10]): 22.5% | inhibition at 0.5 µM (T1142I-CFTR; [11]): 22% | inhibition at 1 µM (T1142I-CFTR; [10]): 39.3% | inhibition at 1 µM (T1142I-CFTR; [11]): 38% | inhibition at 5 µM (T1142I-CFTR; [10]): 78.3% | inhibition at 5 µM (T1142I-CFTR; [11]): 78% | inhibition at 10 µM (T1142I-CFTR; [10]): 90.7% | inhibition at 10 µM (T1142I-CFTR; [11]): 90% | Hill Coefficient (T1142I-CFTR; T1142I): 1.12 ± 0.05 | IC50 (T1142I-CFTR; T1142I): 1490 ± 70 nM | percent inhibition of current, individual cell (W1145A-CFTR; 100 nM Inh-172): 2 and 8 and 0.5 | inhibition at 0.1 µM (W1145A-CFTR; [3]): 3.5% | percent inhibition of current, individual cell (W1145A-CFTR; 500 nM Inh-172): 32 and 33 | inhibition at 0.5 µM (W1145A-CFTR; [4]): 37.3% | inhibition at 0.5 µM (W1145A-CFTR; 500 nM Inh-172, read-out: percent inhibition of current, individual cell): 42% | percent inhibition of current, individual cell (W1145A-CFTR; 1000 nM Inh-172): 60 and 69 and 44 and 52 and 49 | inhibition at 1 µM (W1145A-CFTR; [5]): 54.8% | percent inhibition of current, individual cell (W1145A-CFTR; 5000 nM Inh-172): 89 and 75 and 91 and 80 | inhibition at 5 µM (W1145A-CFTR; [6]): 85% | inhibition at 5 µM (W1145A-CFTR; [7]): 90% | percent inhibition of current, individual cell (W1145A-CFTR; 10000 nM Inh-172): 86 and 88 | inhibition at 10 µM (W1145A-CFTR; [8]): 89.8% | inhibition at 10 µM (W1145A-CFTR; [9]): 95% | Hill Coefficient (W1145A-CFTR; W1145A): 1.08 ± 0.12 | IC50 (W1145A-CFTR; W1145A): 880 ± 90 nM | inhibition at 0.1 µM [1, 3]: 18.4% | inhibition at 0.5 µM [1, 4]: 46.3% | inhibition at 1 µM [1, 10]: 58.5% | inhibition at 1 µM [1, 11]: 68% | inhibition at 5 µM [1, 10]: 83.3% | inhibition at 5 µM [1, 11]: 89% | inhibition at 10 µM [1, 10]: 91% | inhibition at 10 µM [1, 11]: 93% | Hill Coefficient ([1]; h-pTM8-h): 0.80 ± 0.02 | IC50 ([1]; h-pTM8-h): 640 ± 20 nM | percent inhibition of current, individual cell ([2]; 25 nM Inh-172): 0 and 3 | inhibition at 0.025 µM ([2]; 25 nM Inh-172, read-out: percent inhibition of current, Mean): 1% | percent inhibition of current, individual cell ([2]; 100 nM Inh-172): 18 and 20 and 14 and 17 | inhibition at 0.1 µM [2, 3]: 16.4% | inhibition at 0.1 µM ([2]; 100 nM Inh-172, read-out: percent inhibition of current, individual cell): 13% | percent inhibition of current, individual cell ([2]; 500 nM Inh-172): 63 and 60 and 56 and 33 and 23 | inhibition at 0.5 µM [2, 4]: 47% | percent inhibition of current, individual cell ([2]; 1000 nM Inh-172): 53 and 44 and 63 | inhibition at 1 µM [2, 5]: 54% | inhibition at 1 µM ([2]; 1000 nM Inh-172, read-out: percent inhibition of current, individual cell): 57% | percent inhibition of current, individual cell ([2]; 10000 nM Inh-172): 82 and 85 | inhibition at 10 µM [2, 8]: 89% | inhibition at 10 µM [2, 9]: 100% | Hill Coefficient ([2]; p-hTM8-p): 0.84 ± 0.10 | IC50 ([2]; p-hTM8-p): 720 ± 90 nM
